Test results reported in US20230390228A1, “TREATMENT METHODS USING GHB” (Jazz Pharmaceuticals Ireland Limited, priority 2020, published 2023).

Columns and labels:
[1] = system: patients with fibromyalgia; experiment: Randomized, double-blind, placebo-controlled fibromyalgia study (Example 1), analysed by baseline slow wave sleep (Example 2); type: in vivo, human; settings: for change from baseline in Fibromyalgia Impact Questionnaire (FIQ) / change from baseline in pain visual analog scale (PVAS): Xyrem 4.5 g or 6 g/night vs placebo, 8 weeks; for change from baseline in Fibromyalgia Impact Questionnaire (FIQ) / change from baseline in pain visual analog scale (PVAS) / response to oxybate (dose dependence): FIG. 1
Excerpt: This study was a randomized, double-blind, placebo-controlled, parallel group study in subjects diagnosed with fibromyalgia.
The ACR criteria included: presence of widespread pain for more than 3 months in all 4 quadrants of the body as well as along the spine and the elicitation of pain at 11 or more out of 18 anatomically defined tender points upon palpation with a force of 4 kg.
Subjects underwent screening assessments. Subjects who met the eligibility criteria underwent a drug withdrawal and washout period during which time pain medications and any treatment for fibromyalgia were gradually withdrawn. At the end of the 2-week baseline assessment period, subjects who continued to meet inclusion/exclusion criteria and who reported an average pain score above 4 (on a visual analog scale [VAS] of 0 to 10) during the last week of the baseline period were randomized to 1 of 3 treatment groups: Xyrem 4.5 g/night, Xyrem 6 g/night, or placebo (half of the subjects randomized to placebo received placebo matching 4.5 g and the other half received placebo matching 6 g).
Test Product, Dose, Mode of Administration, and Duration of Treatment: • Sodium oxybate 4.5 g, oral solution (9 mL) taken in 2 equally divided doses (4.5 mL added to 2 oz water) each night for 8 weeks. • Sodium oxybate 6 g, oral solution (12 mL) taken in 2 equally divided doses (6 mL added to 2 oz of water) each night for 8 weeks.
Reference Therapy, Dose and Mode of Administration: • Placebo (sodium citrate solution) 4.5 g, oral solution (9 mL) matching volume of Xyrem 4.5 g, taken in 2 equally divided doses (4.5 mL added to 2 oz water) each night. • Placebo (sodium citrate solution) 6 g, oral solution (12 mL) matching volume of Xyrem 6 g, taken in 2 equally divided doses (6 mL added to 2 oz water) each night.
The primary efficacy parameter was a binary composite parameter for the treatment of fibromyalgia syndrome. The proportion of subjects in each treatment group that met all 3 of the following response criteria was compared to assess the efficacy of Xyrem in response to fibromyalgia syndrome. • Pain Severity: as assessed by pain VAS data recorded 3 time a day by the subject in an electronic diary (eDiary). For pain VAS, a response was defined as a reduction in average pain of 20% or greater from baseline to Week 8. • Functionality (Fibromyalgia Impact Questionnaire [FIQ]): Change from baseline to a study visit was assessed. A response was defined as a reduction of 20% or greater in FIQ total score from baseline to Week 8. • Patient Global Impression of Change (PGIc): The subject's perception of the overall improvement in their fibromyalgia symptoms was assessed by means of the PGIc questionnaire completed at the end of study. A response to treatment was defined as a response of “Very much better” or “Much better” on the PGIc.
Severity of Pain: the mean change from baseline to a study visit in pain severity (VAS pain). The proportion of responders for pain, defined as the proportion of subjects who had at least 20% reduction in pain severity from baseline to a study visit.
Fibromyalgia Impact Questionnaire: The mean change from baseline to a study visit in FIQ total score and subscale scores. The proportion of FIQ responders, defined as the proportion of subjects who had at least a 20% reduction in FIQ total score from baseline to a study visit.
Subjective Assessments of Sleep and Fatigue: • Daytime Sleepiness: the mean change from baseline to a study visit in the Epworth Sleepiness Scale (ESS). • Sleep Patterns: the mean change from baseline to a study visit in the Jenkins Scale (JS). • Fatigue: the mean change from baseline to a study visit in the fatigue VAS score. • Functional Outcomes of Sleep Questionnaire (FOSQ): the mean changes from baseline to a study visit in FOSQ total score and subscale scores. […]

[2] = system: narcolepsy patients with cataplexy; settings: cited from earlier work
narcolepsy = settings: in vivo; cited from earlier work
brain = settings: in vivo; cited from earlier work
[3] = molecular target: GABA-ketoglutarate transaminase (Homo sapiens, UniProt P80404); settings: cited from earlier work
GABA-ketoglutarate transaminase, sequence (P80404 29-500): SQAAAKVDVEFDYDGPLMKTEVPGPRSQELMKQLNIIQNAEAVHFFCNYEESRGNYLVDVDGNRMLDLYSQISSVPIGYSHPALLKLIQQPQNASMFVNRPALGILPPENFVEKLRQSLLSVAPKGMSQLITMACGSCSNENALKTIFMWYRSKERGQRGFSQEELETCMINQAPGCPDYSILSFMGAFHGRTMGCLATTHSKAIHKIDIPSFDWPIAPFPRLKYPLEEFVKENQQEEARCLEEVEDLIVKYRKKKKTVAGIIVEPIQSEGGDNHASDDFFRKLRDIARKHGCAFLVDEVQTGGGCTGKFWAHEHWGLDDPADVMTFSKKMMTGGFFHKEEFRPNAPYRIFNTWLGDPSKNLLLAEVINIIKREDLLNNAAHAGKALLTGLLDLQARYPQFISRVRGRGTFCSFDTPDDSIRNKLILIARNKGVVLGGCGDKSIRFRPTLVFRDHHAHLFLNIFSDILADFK

[4] = patients with ≥20% slow wave sleep prior to treatment
[5] = patients with less than about 1% slow wave sleep at baseline or screening

O=C(O)CCCO [sodium oxybate]
change from baseline in Fibromyalgia Impact Questionnaire (FIQ) [1, 4]: did not differ significantly
change from baseline in pain visual analog scale (PVAS) [1, 4]: did not differ significantly
consolidation of REM sleep [2]: increased
duration of slow wave sleep [2]: increased
number of sleep arousals [2]: decreased

O=C(O)CCCO [oxybate, Gamma-hydroxybutyrate]
oxybate response (FIQ, Pain VAS, Fatigue VAS, TPC) ([1]; low baseline slow wave sleep (quartile 1), FIG. 3A-3D): improved oxybate response
response to oxybate (dose dependence) [1, 5]: dose-dependent response
change from baseline in Fibromyalgia Impact Questionnaire (FIQ) [1, 5]: significant improvements
change from baseline in pain visual analog scale (PVAS) [1, 5]: significant improvements
response to oxybate (dose dependence) [1, 4]: did not exhibit a dose-dependent response
change in FIQ from baseline ([1]; slow wave sleep quartile 1 (<13.5 min stage 3/4 sleep at baseline), 4.5 g and 6.0 g Xyrem vs placebo, FIG. 3A): significant improvements
change in Fatigue VAS from baseline ([1]; slow wave sleep quartile 1 (<13.5 min stage 3/4 sleep at baseline), 4.5 g and 6.0 g Xyrem vs placebo, FIG. 3C): significant improvements
change in Tender Points Count (TPC) from baseline ([1]; slow wave sleep quartile 1 (<13.5 min stage 3/4 sleep at baseline), 4.5 g and 6.0 g Xyrem vs placebo, FIG. 3D): significant improvements
REM latency (narcolepsy): decreases
REM sleep (narcolepsy): increases
signs and symptoms of narcolepsy (daytime sleepiness, cataplexy, sleep paralysis, hypnagogic hallucinations) (narcolepsy): substantially reduces
sleep apnea (narcolepsy): reduces
total sleep time (narcolepsy): increases
brain acetylcholine (brain): increases
brain dopamine (brain): increases
glucose utilization in the brain (brain): depression
inhibition of GABA-ketoglutarate transaminase [3]: inhibition
